Assay results published in the NIST ThermoML archive (doi:10.1021/je8003832).

Assay: xn = mol fraction of the nth substance listed
Settings: 101 kPa, Liquid

CCCCn1cc[n+](C)c1.O=S(=O)([O-])C(F)(F)F [1-butyl-3-methylimidazolium trifluoromethanesulfonate] + O
Settings | mass density [kg/m3] | viscosity [mPa·s]
303.15 K, x2 = 0 | 1298.4 | 63.19
303.15 K, x2 = 0.1032 | 1294.5 | 45.7
303.15 K, x2 = 0.1939 | 1291.2 | 35.41
303.15 K, x2 = 0.2987 | 1286.5 | 28.97
303.15 K, x2 = 0.3999 | 1280.8 | 23.25
303.15 K, x2 = 0.501 | 1272.8 | 19.19
303.15 K, x2 = 0.5923 | 1263 | 15.47
303.15 K, x2 = 0.7023 | 1246.2 | 11.56
303.15 K, x2 = 0.799 | 1220.1 | 8.206
303.15 K, x2 = 0.901 | 1164.6 | 4.552
308.15 K, x2 = 0 | 1294.9 | 51.73
308.15 K, x2 = 0.1032 | 1291 | 37.23
308.15 K, x2 = 0.1939 | 1287.7 | 29.27
308.15 K, x2 = 0.2987 | 1283 | 24.28
308.15 K, x2 = 0.3999 | 1277.3 | 19.95
308.15 K, x2 = 0.501 | 1269.3 | 16.8
308.15 K, x2 = 0.5923 | 1259.5 | 13.2
308.15 K, x2 = 0.7023 | 1242.5 | 10.13
308.15 K, x2 = 0.799 | 1216.6 | 6.932
308.15 K, x2 = 0.901 | 1160.6 | 3.869
313.15 K, x2 = 0 | 1291.4 | 42.46
313.15 K, x2 = 0.1032 | 1287.5 | 30.93
313.15 K, x2 = 0.1939 | 1284.1 | 24.46
313.15 K, x2 = 0.2987 | 1279.4 | 20.53
313.15 K, x2 = 0.3999 | 1273.8 | 16.88
313.15 K, x2 = 0.501 | 1265.7 | 13.95
313.15 K, x2 = 0.5923 | 1255.9 | 11.21
313.15 K, x2 = 0.7023 | 1238.8 | 8.605
313.15 K, x2 = 0.799 | 1212.9 | 5.989
313.15 K, x2 = 0.901 | 1156.7 | 3.376
318.15 K, x2 = 0 | 1287.8 | 35.17
318.15 K, x2 = 0.1032 | 1283.8 | 25.04
318.15 K, x2 = 0.1939 | 1280.4 | 20.79
318.15 K, x2 = 0.2987 | 1275.8 | 17.55
318.15 K, x2 = 0.3999 | 1270.2 | 14.38
318.15 K, x2 = 0.501 | 1262 | 12
318.15 K, x2 = 0.5923 | 1252.2 | 9.907
318.15 K, x2 = 0.7023 | 1234.9 | 7.465
318.15 K, x2 = 0.799 | 1208.9 | 5.339
318.15 K, x2 = 0.901 | 1153 | 3.156
323.15 K, x2 = 0 | 1284.4 | 29.55
323.15 K, x2 = 0.1032 | 1280.3 | 21.51
323.15 K, x2 = 0.1939 | 1276.8 | 18.11
323.15 K, x2 = 0.2987 | 1272.2 | 15.17
323.15 K, x2 = 0.3999 | 1266.5 | 12.62
323.15 K, x2 = 0.501 | 1258.3 | 10.42
323.15 K, x2 = 0.5923 | 1248.5 | 8.516
323.15 K, x2 = 0.7023 | 1231.1 | 6.576
323.15 K, x2 = 0.799 | 1205.2 | 4.57
323.15 K, x2 = 0.901 | 1150 | 3.005
333.15 K, x2 = 0 | 1277.4 | 21.61
333.15 K, x2 = 0.1032 | 1273.1 | 16.07
333.15 K, x2 = 0.1939 | 1269.7 | 13.51
333.15 K, x2 = 0.2987 | 1265 | 11.61
333.15 K, x2 = 0.3999 | 1259.3 | 9.88
333.15 K, x2 = 0.501 | 1251.1 | 8.101
333.15 K, x2 = 0.5923 | 1241.3 | 6.702
333.15 K, x2 = 0.7023 | 1223.4 | 5.137
333.15 K, x2 = 0.799 | 1197.2 | 3.618
333.15 K, x2 = 0.901 | 1142.6 | 2.099
343.15 K, x2 = 0 | 1270.5 | 16.38
343.15 K, x2 = 0.1032 | 1266 | 12.44
343.15 K, x2 = 0.1939 | 1262.6 | 10.54
343.15 K, x2 = 0.2987 | 1257.9 | 9.137
343.15 K, x2 = 0.3999 | 1252.2 | 7.816
343.15 K, x2 = 0.501 | 1244 | 6.612
343.15 K, x2 = 0.5923 | 1233.9 | 5.384
343.15 K, x2 = 0.7023 | 1215.6 | 4.24
343.15 K, x2 = 0.799 | 1189.3 | 2.936
343.15 K, x2 = 0.901 | 1134.3 | 1.714
